Experiment [1] has as its system MDA-MB-231 (231). As to the kind of experiment: CD44 surface expression by FACS in 231 cells. It is filed as cell-based, human. The following applies: 4 hours post treatment, increasing doses. How it is done:
(§1) MDA-MB-231, MDA-MB-468 were purchased from ATCC. For acute treatments, cells were plated at a density of 0.5-1×10^5 cells/ml and allowed to adhere for 24-48 hr. when cells reached ˜70% confluency they were treated with antitubulins at indicated concentrations for 4-24 hours and utilized for subsequent assays. To generate chemotherapy tolerant subset, cells were treated with indicated concentrations of chemotherapy (48). Following washes with PBS, adherent cells were trypsinized and re-plated at a density of 1.5-2×10^5 cells/ml and cultured in serum-containing medium. […]
(§2) Cells were cultured as indicated and fixed with 4% paraformaldehyde in PBS for 30 min at RT and blocked in 10% goat serum (v/v). Following PBS washes, cells were incubated with indicated antibodies for 60 minutes at room temperature or overnight at 4 C and analyzed by FACS (Accuri cyomteters Inc. Ann Arbor, Mich.). Cell cycle analyzed in propidium iodide solution following incubation in 70% Ethanol overnight at 4 C and following manufacturer protocol (Genscript USA Inc. Piscataway, N.J.). AnnexinV/PI was analyzed FACS following manufacturer protocol (BD, Ann Arbor Mich.). All FACS results were analyzed by FlowJo™ software following a rigorous doublet discrimination based on FSC:A vs. width as well as FSC:A vs. height (Tree Star Inc., Ashland Oreg.). […]

For experiment [2], the system named is MDA-MB-468 (468) cell line. As to the kind of experiment: CD44/CD24 surface expression by FACS in 468 cells. It is filed as cell-based, human. How it is done: as §1, §2
(A flow cytometer gives signals particle by particle.)

Experiment [3] relates to 4T-1 mouse mammary carcinoma. As to the kind of experiment: 4T-1 tumor growth in Balb/C mice. It counts as in vivo. How it is done:
4-6 week old Balb/C mice (Charles River, Cambridge Mass.) were inoculated with 10^6 4 T-1 mouse mammary carcinoma cells in the left flank (Charles River, Cambridge Mass.). Mice identified with tumors were treated with docetaxel (DTX) or vehicle twice at 72 hour intervals at 10 mg/kg i.v. or 15 mg/kg i.p. and subsequently treated with dasatinib i.p. or nanoparticles i.v. 72 hours following the final DTX dose. Tumors were harvested at indicated time points and evaluated for protein phosphorylation and expression. Experimental detail provided in supplemental data.
1 million 4T-1 mouse mammary carcinoma cells suspended in 100 µL PBS were injected per left flank of 5-6 week old Balb/C (Charles River, Wilmington Mass.). DTX was dissolved in pure Ethanol at a concentration of 50 mg/ml mixed 1:1 with Polysorbate 80 (Tween 80) and brought to a final working concentration with 5% glucose in PBS. Once Tumors became palpable (˜100 mm^3), DTX or vehicle treatments were administered at 100 μL volumes. Dasatinib was dissolved in DMSO to working concentration and delivered as 50 μL injections on indicated days, 50 µL DMSO used as a control in these studies. Tumor volumes were measured by a third party unaware of treatment conditions using digital calipers (Starlett, Athol, Mass.), volumes were assessed by the following formula: (Width×Width×length)/2 and expressed as relative volume increase from day 1. Tumor homogenate was prepared by homogenization of equal weight tissue sections incubated in 3×RIPA buffer containing 2× protease/phosphatase inhibitor cocktail (Thermo Fisher, Waltham, Mass.).

We go through one molecule from patent publication US10813931B2, “Methods and compositions relating to the treatment of cancer” (THE BRIGHAM AND WOMEN'S HOSPITAL, INC., priority 2013, dated 2020).

In the case of `CC(=O)O[C@@]12CO[C@@H]1C[C@H](O)[C@@]1(C)C(=O)[C@H](O)C3=C(C)[C@@H](OC(=O)[C@H](O)[C@@H](NC(=O)OC(C)(C)C)c4ccccc4)C[C@@](O)([C@@H](OC(=O)c4ccccc4)[C@H]21)C3(C)C` [DTX, docetaxel], the CD44 induction entry in experiment [1] was “dose-dependent manner”. The CD44/CD24 signature result in experiment [2] (10 nM docetaxel, 24 h) was “induced a CD44^HI, CD24^+/HI signature”. Also, the CD44 surface expression result in experiment [2] (24 hour incubation, 10 nM DTX) is on record as “induction of CD44 was observed”. For the same molecule, the “tumor re-emergence after treatment” value in experiment [3] (DTX days 2 and 5, day 19) is “re-emerged robustly by day 19”. In experiment [3] (DTX days 2 and 5 at 10 mg/kg i.v. and 15 mg/kg i.p., vs vehicle), the “tumor growth (relative tumor volume)” value is recorded as “inhibited tumor growth”.
